US10358434B2, “2-(3-pyridinyl)-1H-benzimidazole derivative compound and medicament containing same” (NIHON MEDI-PHYSICS CO., LTD., priority 2014, dated 2019)

Legend:
[1] = test system: human adrenal gland section expressing aldosterone-producing adenoma; experiment: In vitro autoradiography using human adrenal adenoma; assay type: binding
Source text: From adrenal gland excised from a human patient for treatment of primary aldosteronism, a portion containing aldosterone-producing adenoma was removed and was then frozen. The frozen adrenal gland was embedded in an embedding agent for production of a frozen tissue section (Tissue-Tek O.C.T. Compound, Sakura Finetek Japan). Using a freezing microtome (CM3050S, Leica Microsystems), a 7-μm thin slice section, which is schematically shown in FIGS. 17(a) and 17(b), was produced, and was preserved at −20° C. before use. In FIGS. 17, 71a and 71b indicate aldosterone-producing adenomas, 72a and 72b indicate normal adrenal cortexes, and 73a and 73b indicate normal adrenal medullas. A 5-33 kBq/mL solution was prepared by adding a suitable amount of each of Compounds [^18F] 100, [^18F] 200, [^123I] 400, [^18F] 500, and [^123I] 601 to [^123I] 610, which were obtained by the methods described in Examples 2, 4, 7, 9, 11, 13, 15, 17, 19, 21, 23, 25, 27, and 29, or [^123I] IMTO to a phosphate-buffered physiological saline containing 1 w/v % bovine serum albumin (not containing fatty acid). The radioactivity concentration was measured using an autowell gamma system (ARC-7001, manufactured by Hitachi Aloka Medical, Ltd.). The section was immersed in the obtained sample solution for 10 minutes. For Compounds [^18F] 100, [^18F] 200, [^123I] 400, [^18F] 500, [^123I] 601 and [^123I] 602, the section shown in FIG. 17(a) was used, and for Compounds […] [^123I] IMTO, both sections shown in FIGS. 17(a) and (b) were used. Each sample solution was washed off, and the section was then exposed to an imaging plate (BAS-SR2040, manufactured by FUJIFILM Holdings Corporation) (IP) for 16-20 hours, and thereafter, an autoradiogram was obtained using a fluoro-image analyzer (FLA-7000, manufactured by FUJIFILM Holdings Corporation).
In order to quantitatively compare differences between images caused by ^123I and ^18F nuclides, a correction was made by calculating accumulation of radioactivity within the range of a region of interest (ROI) by means of integral calculation based on half-life, added radioactivity and IP contact time.
610. FIG. 18(b), FIG. 19(b), FIG. 20(b), FIG. 21(b), FIG. 22(a), FIG. 23(a), FIG. 24(a), FIG. 25(a), FIG. 26(a), FIG. 27(a), FIG. 28(a), FIG. 29(a), FIG. 30(a), and FIG. 31(a) each show an autoradiogram of [^123I] IMTO. […] 100, [^18F] 200, [^123I] 400, [^18F] 500, and [^123I] 601 to [^123I] […] The ROI having the same area as each other was established in a normal site and in a site in which aldosterone-producing adenoma had developed. Then, the PSL value (B1) indicating accumulation of radioactivity in the sites of normal adrenal cortexes 72a and 72b was compared with the PSL value (B2) indicating accumulation of radioactivity in the sites of aldosterone-producing adenomas 71a and 71b. In Table 7, the B1, B2 and B2/B1 values of [^18F] 100 indicate the mean values for the number of tests (n), respectively.

[2] = In vivo kinetics experiment (radioactivity distribution); set-up: species or system Wistar male rat; details: rat i.v., mean ± SD
Description: Each of Compounds [^18F] 100, [^18F] 200, [^123I] 400, [^18F] 500, and [^123I] 601 to 610 obtained by the methods described in Examples 2, 4, 7, 9, 11, 13, 15, 17, 19, 21, 23, 25, 27, and 29, or [^123I] IMTO, was diluted with a physiological saline containing 1 w/v % ascorbic acid to prepare a solution to be administered. The above described compound (approximately 1 to 3.7 MBq) was injected into the caudal vein of a Wistar male rat (9 weeks old) under anesthesia with a mixed gas of isoflurane/air, and ten minutes after the injection, the rat was sacrificed by exsanguination. From the thus sacrificed rat, blood and organs (heart, lung, stomach, liver, spleen, small intestine, large intestine, kidney, bladder (including urine), muscle (lower limbs), brain, adrenal gland, testis, fat, femur, or thyroid gland) were excised, and the weights thereof were then measured. Thereafter, radioactivity was measured in the blood, the individual excised organs, and the remaining whole body. Further, 30 and 60 minutes after the administration, the same operations as those described above were carried out. […] The symbol “n” in Tables 9 to 23 indicates the number of rats used. In addition, Tables 9 to 23 also show the ratio of radioactivity accumulation in adrenal grand (% ID/g) to radioactivity accumulation in each of blood, liver, kidney, small intestine, muscle and fat (% ID/g).

Question: What does the source list for COC(=O)c1cncn1[C@H](C)c1ccc(I)cc1 [[^123I] IMTO, (R)-[^123I]iodometomidate, reference compound]?
Answer: accumulation of radioactivity in adrenal gland section (autoradiogram) ([1]; FIGS. 18 to 31): accumulation of radioactivity was observed in the entire adrenal gland section; B2/B1 accumulation ratio ([1]; section of FIG. 17(a)): 0.84; B2 (PSL value, aldosterone-producing adenoma) ([1]; section of FIG. 17(a), site 71a): 7863; B1 (PSL value, normal adrenal cortex) ([1]; section of FIG. 17(a), site 72a): 9415; B2/B1 accumulation ratio ([1]; section of FIG. 17(b)): 0.79; B2 (PSL value, aldosterone-producing adenoma) ([1]; section of FIG. 17(b), site 71b): 6649; B1 (PSL value, normal adrenal cortex) ([1]; section of FIG. 17(b), site 72b): 8453; Adrenal gland/blood ratio of radioactivity accumulation ([2]; 10 min after administration): 15.93 ± 4.94; Adrenal gland/kidney ratio of radioactivity accumulation ([2]; 10 min after administration): 31.76 ± 10.16; Adrenal gland/liver ratio of radioactivity accumulation ([2]; 10 min after administration): 6.72 ± 2.00; Adrenal gland/muscle ratio of radioactivity accumulation ([2]; 10 min after administration): 126.18 ± 54.27; Adrenal gland/small intestine ratio of radioactivity accumulation ([2]; 10 min after administration): 35.65 ± 9.43; Radioactivity distribution Adrenal gland ([2]; 10 min after administration): 22.14 ± 6.98 % ID/g; Radioactivity distribution Bladder (including urine) ([2]; 10 min after administration): 0.25 ± 0.27 % ID/g; Radioactivity distribution Blood ([2]; 10 min after administration): 1.40 ± 0.13 % ID/g; Radioactivity distribution Heart ([2]; 10 min after administration): 0.48 ± 0.07 % ID/g; Radioactivity distribution Kidney ([2]; 10 min after administration): 0.70 ± 0.01 % ID/g; Radioactivity distribution Large intestine ([2]; 10 min after administration): 0.10 ± 0.02 % ID/g; Radioactivity distribution Liver ([2]; 10 min after administration): 3.29 ± 0.08 % ID/g; Radioactivity distribution Lung ([2]; 10 min after administration): 0.72 ± 0.05 % ID/g; Radioactivity distribution Muscle (lower limbs) ([2]; 10 min after administration): 0.18 ± 0.05 % ID/g; Radioactivity distribution Remaining whole body ([2]; 10 min after administration): 0.29 ± 0.00 % ID/g; Radioactivity distribution Small intestine ([2]; 10 min after administration): 0.62 ± 0.03 % ID/g; Radioactivity distribution Spleen ([2]; 10 min after administration): 0.30 ± 0.02 % ID/g; Radioactivity distribution Stomach ([2]; 10 min after administration): 0.52 ± 0.18 % ID/g; Radioactivity distribution Testis ([2]; 10 min after administration): 0.52 ± 0.08 % ID/g; Radioactivity distribution Thyroid gland ([2]; 10 min after administration): 1.30 ± 1.05 % ID/g; Radioactivity distribution Whole brain ([2]; 10 min after administration): 0.30 ± 0.02 % ID/g; Adrenal gland/blood ratio of radioactivity accumulation ([2]; 30 min after administration): 6.84 ± 2.49; Adrenal gland/kidney ratio of radioactivity accumulation ([2]; 30 min after administration): 16.66 ± 8.95; Adrenal gland/liver ratio of radioactivity accumulation ([2]; 30 min after administration): 9.74 ± 4.16; Adrenal gland/muscle ratio of radioactivity accumulation ([2]; 30 min after administration): 97.10 ± 32.37; Adrenal gland/small intestine ratio of radioactivity accumulation ([2]; 30 min after administration): 25.49 ± 8.31; Radioactivity distribution Adrenal gland ([2]; 30 min after administration): 17.66 ± 7.43 % ID/g; Radioactivity distribution Bladder (including urine) ([2]; 30 min after administration): 0.39 ± 0.08 % ID/g; Radioactivity distribution Blood ([2]; 30 min after administration): 2.55 ± 0.16 % ID/g; Radioactivity distribution Heart ([2]; 30 min after administration): 0.74 ± 0.03 % ID/g; Radioactivity distribution Kidney ([2]; 30 min after administration): 1.10 ± 0.12 % ID/g; Radioactivity distribution Large intestine ([2]; 30 min after administration): 0.12 ± 0.01 % ID/g; Radioactivity distribution Liver ([2]; 30 min after administration): 1.82 ± 0.04 % ID/g; Radioactivity distribution Lung ([2]; 30 min after administration): 0.90 ± 0.09 % ID/g; Radioactivity distribution Muscle (lower limbs) ([2]; 30 min after administration): 0.18 ± 0.02 % ID/g; Radioactivity distribution Remaining whole body ([2]; 30 min after administration): 0.31 ± 0.03 % ID/g; Radioactivity distribution Small intestine ([2]; 30 min after administration): 0.68 ± 0.06 % ID/g; Radioactivity distribution Spleen ([2]; 30 min after administration): 0.43 ± 0.04 % ID/g; Radioactivity distribution Stomach ([2]; 30 min after administration): 0.46 ± 0.11 % ID/g; Radioactivity distribution Testis ([2]; 30 min after administration): 0.32 ± 0.04 % ID/g; Radioactivity distribution Thyroid gland ([2]; 30 min after administration): 0.81 ± 0.16 % ID/g; Radioactivity distribution Whole brain ([2]; 30 min after administration): 0.18 ± 0.02 % ID/g; Adrenal gland/blood ratio of radioactivity accumulation ([2]; 60 min after administration): 6.73 ± 2.57; Adrenal gland/kidney ratio of radioactivity accumulation ([2]; 60 min after administration): 18.20 ± 8.58; Adrenal gland/liver ratio of radioactivity accumulation ([2]; 60 min after administration): 14.20 ± 5.28; Adrenal gland/muscle ratio of radioactivity accumulation ([2]; 60 min after administration): 120.14 ± 30.92; Adrenal gland/small intestine ratio of radioactivity accumulation ([2]; 60 min after administration): 24.59 ± 8.26; Radioactivity distribution Adrenal gland ([2]; 60 min after administration): 19.70 ± 8.14 % ID/g; Radioactivity distribution Bladder (including urine) ([2]; 60 min after administration): 0.68 ± 0.30 % ID/g; Radioactivity distribution Blood ([2]; 60 min after administration): 2.91 ± 0.09 % ID/g; Radioactivity distribution Heart ([2]; 60 min after administration): 0.77 ± 0.03 % ID/g; Radioactivity distribution Kidney ([2]; 60 min after administration): 1.10 ± 0.10 % ID/g; Radioactivity distribution Large intestine ([2]; 60 min after administration): 0.14 ± 0.02 % ID/g; Radioactivity distribution Liver ([2]; 60 min after administration): 1.37 ± 0.06 % ID/g; Radioactivity distribution Lung ([2]; 60 min after administration): 1.01 ± 0.03 % ID/g; Radioactivity distribution Muscle (lower limbs) ([2]; 60 min after administration): 0.16 ± 0.02 % ID/g; Radioactivity distribution Remaining whole body ([2]; 60 min after administration): 0.34 ± 0.01 % ID/g; Radioactivity distribution Small intestine ([2]; 60 min after administration): 0.79 ± 0.11 % ID/g; Radioactivity distribution Spleen ([2]; 60 min after administration): 0.39 ± 0.03 % ID/g; Radioactivity distribution Stomach ([2]; 60 min after administration): 0.41 ± 0.05 % ID/g; Radioactivity distribution Testis ([2]; 60 min after administration): 0.33 ± 0.02 % ID/g; Radioactivity distribution Thyroid gland ([2]; 60 min after administration): 1.29 ± 0.25 % ID/g; Radioactivity distribution Whole brain ([2]; 60 min after administration): 0.11 ± 0.00 % ID/g
